# Measured values from ChEMBL document CHEMBL1201862, “PubChem BioAssay data set” (2004).
# Activity calls are given as the source filed them.
# Experiments:
# [1] = C. albicans growth with fluconazole, confirmation, fluorescence, retest (AID 2467); assay type: functional, cell-based
# [2] = NIH-3T3 fibroblast cytotoxicity, dose response, cytotoxicity control, cell-based, fluorescence, Alamar Blue, secondary assay (AID 2327); assay type: functional;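 further: NIH-3T3 mouse fibroblasts cultured with fluconazole at 8 µg/mL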
# SN12K1 = assay: cells; assay type: functional; details: Homo sapiens
# P388/ADR = assay: cells; assay type: functional; details: Mus musculus
# P388 = assay: cells; assay type: functional; details: Mus musculus
# [3] = target: T1, Polyadenylate-binding protein 1 (Homo sapiens, UniProt P11940); assay: PABP1 MLLE–PAM2 interaction inhibitors, dose response, miRNA deadenylation inhibitor project, biochemical, fluorescence polarization, Cy5-PAM2 peptide, secondary (AID 602260); assay type: functional; details: read-out: IC50_Mean
# T1 sequence (P11940 whole entry): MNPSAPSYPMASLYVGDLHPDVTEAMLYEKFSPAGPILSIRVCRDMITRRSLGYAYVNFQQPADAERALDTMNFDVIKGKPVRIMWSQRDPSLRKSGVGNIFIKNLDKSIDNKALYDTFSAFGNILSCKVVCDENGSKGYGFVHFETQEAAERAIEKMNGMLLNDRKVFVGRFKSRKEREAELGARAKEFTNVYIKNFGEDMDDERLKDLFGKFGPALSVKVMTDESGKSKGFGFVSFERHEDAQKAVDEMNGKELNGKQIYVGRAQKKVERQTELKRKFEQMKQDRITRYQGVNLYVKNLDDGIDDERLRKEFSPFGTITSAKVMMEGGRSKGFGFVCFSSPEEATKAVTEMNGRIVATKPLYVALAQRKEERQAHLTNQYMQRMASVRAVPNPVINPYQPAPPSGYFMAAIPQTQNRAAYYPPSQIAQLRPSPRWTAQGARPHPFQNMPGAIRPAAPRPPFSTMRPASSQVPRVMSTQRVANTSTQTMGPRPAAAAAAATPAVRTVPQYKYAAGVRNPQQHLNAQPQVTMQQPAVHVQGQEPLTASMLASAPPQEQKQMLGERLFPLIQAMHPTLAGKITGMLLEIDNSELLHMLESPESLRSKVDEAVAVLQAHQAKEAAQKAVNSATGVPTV
# [4] = target: T1, Polyadenylate-binding protein 1; assay: PABP1 MLLE–PAM2 binding inhibitor potency, dose response, biochemical, fluorescence polarization, FITC-PAM2 peptide (AID 602259); assay type: functional; details: read-out: IC50_Mean
# H9c2 = assay: cells; assay type: functional, cell-based; details: Rattus norvegicus, H9c2, Myocardium;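 further: confirmatory concentration-response retest of ultra-high-throughput screening hits for modulation of myocardial damage; cell death induced by hydrogen peroxide oxidative stress; compound pretreatment for 60 min then peroxide exposure for 2 h; potency is for protecting the cells against peroxide damage rather than for killing them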
# [5] = target: T2, Carboxy-terminal domain RNA polymerase II polypeptide A small phosphatase 1 (Homo sapiens, UniProt Q9GZU7); assay: inhibitors of CTDSP1, concentration-response testing, biochemical assay, absorbance-based, actives from ultra-high-throughput screening (AID 540297); assay type: functional
# T2 sequence (Q9GZU7 whole entry): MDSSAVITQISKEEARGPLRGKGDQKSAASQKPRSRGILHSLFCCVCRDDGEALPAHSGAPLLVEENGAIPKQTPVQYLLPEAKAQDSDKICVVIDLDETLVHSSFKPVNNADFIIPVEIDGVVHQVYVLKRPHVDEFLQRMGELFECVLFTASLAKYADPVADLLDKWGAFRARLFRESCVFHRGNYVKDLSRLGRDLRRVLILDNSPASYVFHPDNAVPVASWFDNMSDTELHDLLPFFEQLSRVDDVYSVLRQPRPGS
# Protein skinhead-1 = target: T3, Protein skinhead-1 (Caenorhabditis elegans, UniProt P34707); assay type: functional
# T3 sequence (P34707 whole entry): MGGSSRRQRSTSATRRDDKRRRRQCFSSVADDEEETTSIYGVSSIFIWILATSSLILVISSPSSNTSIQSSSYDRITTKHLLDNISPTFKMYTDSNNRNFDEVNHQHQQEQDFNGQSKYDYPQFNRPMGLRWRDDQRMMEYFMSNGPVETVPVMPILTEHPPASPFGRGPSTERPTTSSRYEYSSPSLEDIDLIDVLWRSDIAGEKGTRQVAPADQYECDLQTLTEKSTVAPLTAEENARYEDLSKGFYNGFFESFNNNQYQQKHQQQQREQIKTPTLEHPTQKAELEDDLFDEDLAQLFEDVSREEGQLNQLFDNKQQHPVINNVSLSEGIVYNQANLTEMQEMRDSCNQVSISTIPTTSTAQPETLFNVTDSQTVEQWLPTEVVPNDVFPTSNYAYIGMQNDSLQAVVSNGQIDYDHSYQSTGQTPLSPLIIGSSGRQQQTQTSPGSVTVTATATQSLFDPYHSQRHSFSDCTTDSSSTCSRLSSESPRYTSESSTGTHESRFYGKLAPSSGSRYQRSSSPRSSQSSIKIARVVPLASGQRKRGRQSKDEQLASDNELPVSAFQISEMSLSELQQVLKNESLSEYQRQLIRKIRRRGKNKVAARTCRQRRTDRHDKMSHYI
# [6] = control 3'UTR Renilla luciferase suppression, dose response, counter-screen for Shn3 inhibitor project, cell-based, Clone20-Shn3RL, cherry-picked (AID 624133); assay type: functional
# Cytochrome P450 2D6 = Cytochrome P450 2D6 (Homo sapiens, UniProt P10635);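 further: CYP2D6 member of a cytochrome P450 panel assay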
# Cytochrome P450 2D6, sequence (P10635 whole entry): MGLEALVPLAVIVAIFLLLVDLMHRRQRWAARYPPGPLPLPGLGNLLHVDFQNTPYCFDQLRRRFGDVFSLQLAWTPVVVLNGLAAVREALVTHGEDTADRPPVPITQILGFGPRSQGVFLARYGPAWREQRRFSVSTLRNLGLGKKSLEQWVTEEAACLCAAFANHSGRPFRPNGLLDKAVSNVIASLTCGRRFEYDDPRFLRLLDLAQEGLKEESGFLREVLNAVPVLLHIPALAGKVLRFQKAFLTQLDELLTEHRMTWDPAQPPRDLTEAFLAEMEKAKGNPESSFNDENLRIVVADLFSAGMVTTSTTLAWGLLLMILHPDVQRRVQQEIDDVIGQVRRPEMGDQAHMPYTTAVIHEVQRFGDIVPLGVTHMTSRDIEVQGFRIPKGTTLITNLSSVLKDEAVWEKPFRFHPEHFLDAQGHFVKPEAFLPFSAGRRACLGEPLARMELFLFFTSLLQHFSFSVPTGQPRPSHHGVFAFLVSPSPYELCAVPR
# Streptococcus = assay: Group A Streptococcus viability loss, dose response, counter-screen for streptokinase expression inhibitor project, luminescence, BacTiterGlo (AID 1915); assay type: functional, organism-based;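 further: potency for reduction of bacterial viability or growth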
# [7] = HepG2 cell cytotoxicity, dose response, cytotoxicity control for Shn3 inhibitor project, CellTiter-Glo, cherry-picked (AID 624134); assay type: functional, cell-based
# Streptokinase A = target: T4, Streptokinase A (Streptococcus pyogenes serotype M1, UniProt P10520); assay: S. pyogenes streptokinase expression inhibitors, potency, dose response, plasminogen activation absorbance, OD405 (AID 1914); assay type: functional, Streptococcus pyogenes M1 GAS;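 further: secreted streptokinase activity via plasminogen activation per viability signal from cell pellet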
# T4 sequence (P10520 whole entry): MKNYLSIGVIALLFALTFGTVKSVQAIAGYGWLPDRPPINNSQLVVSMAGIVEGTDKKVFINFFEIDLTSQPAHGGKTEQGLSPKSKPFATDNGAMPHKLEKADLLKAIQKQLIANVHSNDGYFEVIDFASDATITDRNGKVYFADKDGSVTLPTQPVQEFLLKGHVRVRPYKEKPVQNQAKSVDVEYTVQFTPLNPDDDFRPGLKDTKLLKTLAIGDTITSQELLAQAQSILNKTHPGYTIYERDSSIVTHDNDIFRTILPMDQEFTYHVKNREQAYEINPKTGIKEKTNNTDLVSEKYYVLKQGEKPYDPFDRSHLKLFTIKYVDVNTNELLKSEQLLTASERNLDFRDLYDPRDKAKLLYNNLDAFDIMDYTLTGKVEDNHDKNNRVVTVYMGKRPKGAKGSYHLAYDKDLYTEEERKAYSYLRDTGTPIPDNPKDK
# [8] = system: Streptococcus sp. 'group A'; assay: growth inhibition of control SK(-) GAS strain, dose response, counter-screen for streptokinase expression inhibitor project, luminescence, kanamycin, BacTiterGlo, confirmation (AID 1900); assay type: functional, organism-based
# [9] = Shn3 3'UTR reporter inhibitors, dose response, cell-based, Clone20 osteoblasts, firefly luciferase, cherry-picked (AID 624132); assay type: functional;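 further: firefly luciferase luminescence from reporter carrying the Shn3 3'UTR in osteoblasts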
# [10] = cytotoxicity toward NIH3T3 fibroblasts, dose response, counter-screen, cell-based, ATP luminescence, mouse fibroblasts (AID 2010); assay type: functional;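 further: cells exposed to compound for about 90 hours before reading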
# [11] = inhibitors of intracellular T. cruzi replication, confirmation, NIH3T3 host cells, beta-gal luminescence (AID 2044); assay type: functional, cell-based;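 further: intracellular parasites grown in NIH/3T3 mouse fibroblasts as host cells; luminescent beta-galactosidase reporter signal from transgenic T. cruzi replicating inside host cells; inhibitors lower the luminescence signal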
# H4 = assay: Luminescence Cell-Based Dose Response HTS to Identify Activators of 5'UTR Stem-Loop Driven Prion Protein mRNA Translation in H4 Neuroglioblastoma Cells. [Related pubchem assays: 1829 (Project Summary), 1814 (Primary HTS)]; assay type: functional; details: Homo sapiens
# [12] = Luminescence Cell-Based Dose Response HTS to Identify Activators of Luciferase Translation or Activity in H4 […] Cells. [Related pubchem assays: 1829 (Project Summary), 1814 (Primary HTS)]; assay type: functional
structure (smiles),measurement,setting,value
Cc1c(Cl)ccc(S(=O)(=O)Nc2cccnc2)c1Cl,EC50,[1],> 38 µM (not active)
same,EC50,[2],> 150 µM (inactive)
Cc1ccc(OP2(=O)Oc3ccc4ccccc4c3CN2c2ccc(Cl)cc2)cc1C (configuration not stated),GI50,SN12K1,> 100 µM (inactive)
same,GI50,P388/ADR,> 100 µM (inactive)
same,GI50,P388,> 100 µM (inactive)
CCN(c1c(C)n(C)n(-c2ccccc2)c1=O)S(C)(=O)=O,IC50,[3],> 66 µM (inactive)
same,IC50,[4],> 66 µM (inactive)
CC(=O)C1=C(O)C(=O)N(C)C1c1ccccc1[N+](=O)[O-] (configuration not stated),IC50,[3],> 66 µM (inactive)
same,IC50,[4],> 66 µM (inactive)
COc1ccccc1C(=O)Nc1nc(-c2ccc3c(c2)OCCO3)cs1,IC50,H9c2,> 79 µM (inactive)
O=NN(CCCl)C(=O)NCCCl [CARMUSTINE],GI50,SN12K1,58.3 µM (inactive)
same,GI50,P388/ADR,7.29 µM (inactive)
same,GI50,P388,6.62 µM (inactive)
CCC(OC(=O)CC1Sc2ccccc2NC1=O)C(=O)NCC1CCCO1 (configuration not stated),IC50,[3],> 66 µM (inactive)
same,IC50,[4],> 66 µM (inactive)
COc1cccc(CN2CCN(C(=O)c3cc(-c4cccnc4)nc4ccc(C)cc34)CC2)c1,IC50,H9c2,11.6 µM (active)
CC[N+]1(CC(O)COC2CC(C)CC(C)(C)C2)CCOCC1 (configuration not stated),IC50,[5],11.3 µM (active)
C1CN1c1nc(N2CC2)nc(N2CC2)n1,GI50,SN12K1,5.21 µM (inactive)
same,GI50,P388/ADR,0.466 µM (active)
same,GI50,P388,0.465 µM (active)
Cc1cc(OCC(O)CN2CCN(C)CC2)ccc1C(C)C (configuration not stated),IC50,Protein skinhead-1,> 100 µM (inactive)
Cc1cnc(C(=O)Nc2ccccc2-c2ccc(C)o2)cn1,IC50,Protein skinhead-1,> 100 µM (inactive)
c1ccc2cc3c(cc2c1)OP1(Oc2cccc4cccnc24)(O3)Oc2cc3ccccc3cc2O1,GI50,SN12K1,3.31 µM (inactive)
same,GI50,P388/ADR,1.42 µM (inactive)
same,GI50,P388,1.2 µM (inactive)
Cc1c(NC(=O)Cn2[nH]c(=O)c3ccccc3c2=O)c(=O)n(-c2ccccc2)n1C,IC50,H9c2,38.5 µM (inactive)
COc1ccccc1C(=O)NCCn1ccc2ccccc21,IC50,[3],> 66 µM (inactive)
same,IC50,[4],> 66 µM (inactive)
O=C(NC(=S)Nc1ncccn1)c1ccccc1Cl,IC50,[3],> 66 µM (inactive)
same,IC50,[4],> 66 µM (inactive)
Cc1cc(C(=O)COC(=O)c2cc(Cl)c(O)c(Cl)c2)c(C)n1C,IC50,[5],11.5 µM (active)
CCOc1cccc(-c2nn3c(-c4ccccn4)nnc3s2)c1,IC50,H9c2,> 79 µM (inactive)
Brc1ccc(OCc2n[nH]c(-c3ccccn3)n2)cc1,IC50,Protein skinhead-1,> 100 µM (inactive)
O=C(C[N+]12CCC(CC1)C(C(O)(c1ccccc1)c1ccccc1)C2)c1ccc(Br)cc1 (configuration not stated),EC50,[1],1.45 µM (active)
same,EC50,[2],> 160 µM (inconclusive)
N#Cc1c(O)nc(-c2ccco2)c2c1CCCC2,IC50,[3],> 66 µM (inactive)
same,IC50,[4],> 66 µM (inactive)
COc1ccc(C(C)=O)cc1COC(=O)Cc1nnc(O)c2ccccc12,IC50,H9c2,> 79 µM (inactive)
C=CC1(NC(=O)c2ccccc2)CCC(C(C)(C)C)CC1 (configuration not stated),GI50,SN12K1,32.4 µM (inactive)
same,GI50,P388/ADR,22.2 µM (inactive)
same,GI50,P388,12.2 µM (inactive)
CCCCn1c(=O)[nH]c(=O)c2c1nc(-c1ccc(-c3ccccc3Br)o1)n2CC,EC50,[1],> 38 µM (not active)
same,EC50,[2],> 150 µM (inconclusive)
O=C(O)C1CCC(=O)N1S(=O)(=O)c1ccccc1 (configuration not stated),GI50,SN12K1,> 100 µM (inactive)
same,GI50,P388/ADR,> 100 µM (inactive)
same,GI50,P388,> 100 µM (inactive)
CCN1C(=O)[C@H]2[C@H]3CN=C(SCC(=O)c4ccccc4)N3[C@@](C)(C(=O)OC)[C@H]2C1=O,IC50,[3],> 66 µM (inactive)
same,IC50,[4],> 66 µM (inactive)
Brc1ccc2nc(N3CCCC3)sc2c1,IC50,Protein skinhead-1,79.4 µM (inactive)
CSCSCC(N)CO.Cc1[nH]c(=O)[nH]c(=O)c1/C=C/C(=O)O,GI50,SN12K1,> 625 µM (inactive)
same,GI50,P388/ADR,> 625 µM (inactive)
same,GI50,P388,> 625 µM (inactive)
CCOC(=O)/C=C1\CN(CCC(C)C)S(=O)(=O)c2ccccc21,IC50,[5],45.3 µM (active)
COc1ccccc1OCC(=O)Nc1sc2c(c1C(=O)NCC1CCCO1)CCC2 (configuration not stated),IC50,H9c2,30.4 µM (inactive)
CC1CCN(c2ccc(S(=O)(=O)Nc3cc(C(=O)O)cc(C(=O)O)c3)cc2[N+](=O)[O-])CC1,IC50,[5],9.99 µM (active)
Fc1ccc(-n2nnc(-c3nccs3)n2)cc1,IC50,Protein skinhead-1,22.8 µM (active)
O=[N+]([O-])c1cnccc1-n1nnc2ccccc21,GI50,SN12K1,27.7 µM (inactive)
same,GI50,P388,7.96 µM (inactive)
O=S(=O)(c1ccc(Cl)cc1)c1cc(O)ccc1O,IC50,H9c2,12.4 µM (active)
CCCCOc1ccc(C(=O)OC2CC(C)N(C)CC2C)cc1 (configuration not stated),IC50,Protein skinhead-1,27.6 µM (active)
Nc1ccc(Sc2ccc([N+](=O)[O-])cc2)cc1,EC50,[1],> 38 µM (not active)
same,EC50,[2],> 160 µM (inactive)
S=C(NCCCCCCNC(=S)Nc1c2ccccc2nc2ccccc12)Nc1c2ccccc2nc2ccccc12,GI50,SN12K1,6.22 µM (inactive)
same,GI50,P388/ADR,65 µM (inactive)
same,GI50,P388,44.5 µM (inactive)
O=C(CN(Cc1ccco1)C(=O)CNS(=O)(=O)c1ccc(Cl)cc1)NC1CCCCC1,IC50,Protein skinhead-1,> 100 µM (inactive)
CCOC(=O)C[n+]1ccc2c([nH]c3cc(OC)ccc32)c1C,GI50,SN12K1,> 80.2 µM (inactive)
same,GI50,P388/ADR,35.1 µM (inactive)
same,GI50,P388,38.9 µM (inactive)
Cc1c(Cl)cccc1N=C(S)NCCc1ccc(S(N)(=O)=O)cc1,IC50,[3],> 66 µM (inactive)
same,IC50,[4],> 66 µM (inactive)
COc1cc2c(C#CCCO)c(-c3ccsc3)oc(=O)c2cc1OC,IC50,H9c2,20.7 µM (active)
N#Cc1ccc(OCC(=O)Nc2cccc(S(=O)(=O)NC3=NCCCCC3)c2)cc1,IC50,[5],11.6 µM (active)
COc1ccc2oc(=O)c(C(=O)OCc3ccccc3)cc2c1,IC50,[3],> 66 µM (inactive)
same,IC50,[4],> 66 µM (inactive)
O=C(/C=C/c1ccccc1)NC(NC(=S)Nc1ccc(Cl)cc1)C(Cl)(Cl)Cl (configuration not stated),AC50,[6],30.4 µM (active)
same,AC50,Cytochrome P450 2D6,7.94 µM (inconclusive)
same,EC50,Streptococcus,> 150 µM (not active)
same,AC50,[7],26.7 µM (active)
same,EC50,Streptokinase A,> 150 µM (not active)
same,EC50,[8],5.79 µM (active)
same,AC50,[9],5.13 µM (active)
same,EC50,[10],> 60 µM (not active)
same,EC50,[11],1.08 µM (active)
Cc1cc2ccccn2c1C(=O)Nc1cccc(Cl)c1,IC50,Protein skinhead-1,> 100 µM (inactive)
O=C(NN=C(NS(=O)(=O)c1ccc(Cl)cc1)c1ccccc1)c1cccc(Cl)c1,EC50,H4,> 120 µM (not active)
same,EC50,[12],7.54 µM (active)
